Laboratory results published in patent publication US8796297B2, “4-substituted-2-amino-pyrimidine derivatives” (AbbVie Inc., priority 2009, dated 2014).
Counter-ions that a name gives are not always drawn.

Assays:
[1] = target: T1, human histamine H3 receptor (Homo sapiens (Human), UniProt Q9Y5N1); experiment: Radioligand competition binding assay, human H3 receptor; settings: [3H]-N-α-methylhistamine competition binding
[2] = target: T2, rat histamine H3 receptor (Rattus norvegicus (Rat), UniProt Q9QYN8); experiment: Radioligand competition binding assay, rat H3 receptor; settings: [3H]-N-α-methylhistamine competition binding
Protocol: To determine the effectiveness of representative compounds of this invention as histamine-3 receptor ligands (H3 receptor ligands), the following tests were conducted according to previously described methods (see European Journal of Pharmacology 1990, 188, 219-227; Journal of Pharmacology and Experimental Therapeutics 1995, 275, 598-604; Journal of Pharmacology and Experimental Therapeutics 1996, 276, 1009-1015; and Biochemical Pharmacology 1973, 22, 3099-3108).
The rat H3 receptor was cloned and expressed in cells, and competition binding assays carried out, according to methods previously described (see Esbenshade, et al. Journal of Pharmacology and Experimental Therapeutics 2005, 313, 165-175; Esbenshade et al., Biochemical Pharmacology 2004, 68, 933-945; and Krueger, et al. Journal of Pharmacology and Experimental Therapeutics 2005, 314, 271-281). Membranes were prepared from C6 or HEK293 cells, expressing the rat histamine H3 receptor, by homogenization on ice in TE buffer (50 mM Tris-HCl buffer, pH 7.4, containing 5 mM EDTA), 1 mM benzamidine, 2 μg/ml aprotinin, 1 μg/ml leupeptin, and 1 μg/ml pepstatin. The homogenate was centrifuged at 40,000 g for 20 minutes at 4° C. This step was repeated, and the resulting pellet was resuspended in TE buffer. Aliquots were frozen at −70° C. until needed. On the day of assay, membranes were thawed and diluted with TE buffer.
Membrane preparations were incubated with [^3H]-N-α-methylhistamine (0.5-1.0 nM) in the presence or absence of increasing concentrations of ligands for H3 receptor competition binding. The binding incubations were conducted in a final volume of 0.5 ml TE buffer at 25° C. and were terminated after 30 minutes. Thioperamide (30 μM) was used to define non-specific binding. All binding reactions were terminated by filtration under vacuum onto polyethylenimine (0.3%) presoaked Unifilters (Perkin Elmer Life Sciences) or Whatman GF/B filters followed by three brief washes with 2 ml of ice-cold TE buffer. Bound radiolabel was determined by liquid scintillation counting. For all of the radioligand competition binding assays, IC50 values and Hill slopes were determined by Hill transformation of the data and pKi values were determined by the Cheng-Prusoff equation.

human H3R = human H3R (Homo sapiens (Human), UniProt Q9Y5N1); experiment: GTPγS functional assay, membranes from HEK cells expressing the human H3R; type: biochemical; settings: for Emax: 5 min, [35S]GTPγS bound as percentage of basal, read-out: Human Maximum (%); for EC50: GTPγS agonist potency
Protocol: (§1) Membranes from HEK cells expressing the human H3R, or from C6 cells expressing the rat H3R, were prepared by homogenization in cold buffer containing 50 mM Tris-HCl (pH 7.4), 5 mM EDTA, 10 mM MgCl2, 1 mM benzamidine, 2 μg/ml aprotinin, 1 μg/ml leupeptin, and 1 μg/ml pepstatin. The homogenate was centrifuged at 40,000 g for 20 min at 4° C., and the resulting pellet was resuspended in 50 mM Tris-HCl (pH 7.4), 5 mM EDTA, and 10 mM MgCl2 and homogenized. Glycerol and bovine serum albumin were added to a final concentration of 10% glycerol and 1% bovine serum albumin. Membranes were diluted in GTPγS assay buffer (25 mM HEPES, 2.5 mM MgCl2, and 75 mM NaCl, pH 7.4) and 10 μg of membrane protein was incubated in a 96-well deep-well block in the presence of 5.0 μM unlabeled GDP, approximately 0.5 nM of [^35S]GTPγS, and increasing concentrations of test compounds. Samples were incubated at 37° C. for 5 min and the assays were terminated by the addition of cold buffer (50 mM Tris-HCl, 75 mM NaCl, and 2.5 mM MgCl2, pH 7.6) and subsequent harvesting onto a Packard Unifilter 96-well GF/B plate followed by extensive washing. Microscint 20 (PerkinElmer Life Sciences) was added to the samples, and bound [^35S]GTPγS was determined using the Topcount (Perkin Elmer Life Sciences). The percentage of [^35S]GTPγS bound in each sample was calculated as a percentage of that bound to control samples incubated in the absence of the H3R agonists (basal). Data were analyzed from experiments performed in triplicate using GraphPad Prism to obtain pEC50 values, Hill slopes, and maximal % response.

rat H3R = rat H3R (Rattus norvegicus (Rat), UniProt Q9QYN8); experiment: GTPγS functional assay, membranes from C6 cells expressing the rat H3R; type: biochemical; settings: for Emax: 5 min, read-out: Rat Maximum (%); for EC50: GTPγS agonist potency
Protocol: as §1

[3] = target: T1, human histamine H3 receptor; experiment: FLIPR functional assay (Ca2+, HEK-293 cells coexpressing Gαqi5), human H3 receptor; type: cell-based; settings: for EC50: FLIPR agonist potency; for Emax: HEK293, FLIPR, percentage of the response to 1 μM RAMH, read-out: Human Maximum (%)
Text: (§2) There are many methods available to show the effectiveness of compounds as histamine H3 receptor ligands. Histamine H3 receptors from mammalian species have been cloned. Methods to clone, express, and assess the potency and functional activity of such cloned genes are well known to those skilled in the art of molecular biology. […] In the present case, to determine the potency and effectiveness of representative compounds of this invention as histamine-H3 receptor ligands (H3 receptor ligands), the following tests were conducted according to previously described methods (see Esbenshade, et al., Journal of Pharmacology and Experimental Therapeutics 2003, 305, 887-896, Esbenshade, et al., Biochemical Pharmacology 2004, 68, 933-945, and in Krueger, et al., Journal of Pharmacology and Experimental Therapeutics 2005, 314, 271-281): histamine H3 receptors were cloned and stably expressed in HEK-293 (human embryonic kidney) cells coexpressing a Gαqi5. Before testing, cells were loaded with a Ca^+2 sensitive fluorescent dye, in this case Fluo-4. For partial agonist or full agonist ligands, addition of compound to the cells led to an increase in intracellular Ca^+2 which was detected by FLIPR (Fluorescence Imaging Plate Reader; Molecular Devices, Sunnyvale, Calif.) technology. The fluorescence intensities measured before addition of the test compound were subtracted from the fluorescence intensities at later time points. Peak response values determined at each concentration of ligand were expressed as a percentage of the response obtained with a maximal concentration (1 μM) of the full agonist R-α-methyl-histamine (RAMH). Concentration versus response data were analyzed to obtain compound potency as EC50 values for full and partial agonists.

[4] = target: T2, rat histamine H3 receptor; experiment: FLIPR functional assay (Ca2+, HEK-293 cells coexpressing Gαqi5), rat H3 receptor; type: cell-based; settings: for EC50: FLIPR agonist potency; for Rat Maximum (%): FLIPR, percentage of the response to 1 μM RAMH
Text: as §2

[5] = [35S]GTPγS bound as percentage of basal

T2 sequence (Q9QYN8 whole entry): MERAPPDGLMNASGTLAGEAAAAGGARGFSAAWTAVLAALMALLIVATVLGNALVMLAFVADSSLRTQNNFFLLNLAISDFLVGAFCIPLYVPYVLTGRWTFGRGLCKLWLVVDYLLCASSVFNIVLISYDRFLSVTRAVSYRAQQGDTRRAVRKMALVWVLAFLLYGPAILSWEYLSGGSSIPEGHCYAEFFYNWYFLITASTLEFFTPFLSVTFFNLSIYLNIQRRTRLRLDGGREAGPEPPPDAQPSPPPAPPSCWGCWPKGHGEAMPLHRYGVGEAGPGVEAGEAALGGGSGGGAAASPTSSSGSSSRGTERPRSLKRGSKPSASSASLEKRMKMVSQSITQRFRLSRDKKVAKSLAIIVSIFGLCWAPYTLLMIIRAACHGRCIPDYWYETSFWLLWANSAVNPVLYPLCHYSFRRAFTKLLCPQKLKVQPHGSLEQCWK
Sequence of rat H3R (Q9QYN8 whole entry): as above
T1 sequence (Q9Y5N1 whole entry): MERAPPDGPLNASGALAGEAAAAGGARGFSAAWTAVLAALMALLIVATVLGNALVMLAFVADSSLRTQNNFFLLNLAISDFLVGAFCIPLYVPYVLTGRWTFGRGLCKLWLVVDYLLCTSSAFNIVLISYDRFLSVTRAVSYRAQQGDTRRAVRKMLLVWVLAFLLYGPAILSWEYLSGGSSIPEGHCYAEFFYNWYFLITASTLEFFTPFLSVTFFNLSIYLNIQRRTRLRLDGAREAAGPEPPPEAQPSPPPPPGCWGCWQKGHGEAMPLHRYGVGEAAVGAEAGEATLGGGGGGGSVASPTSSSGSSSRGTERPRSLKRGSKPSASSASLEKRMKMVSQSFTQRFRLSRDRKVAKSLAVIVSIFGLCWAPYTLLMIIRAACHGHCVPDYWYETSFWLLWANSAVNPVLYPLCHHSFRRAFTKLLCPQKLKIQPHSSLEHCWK
Sequence of human H3R (Q9Y5N1 whole entry): as above

Row | Structure (SMILES) | Ki [1] [nM] | Ki [2] [nM] | Emax (human H3R) [%] | EC50 (human H3R) [nM] | Emax (rat H3R; [5]) [%] | EC50 (rat H3R) [nM] | EC50 [3] [nM] | Emax [3] [%] | EC50 [4] [nM] | Rat Maximum (%) [4] [%] | Rat Maximum (%) (rat H3R; [5])
1 | Nc1nccc(N2CCNCC2)n1 [Example 25, 4-(piperazin-1-yl)pyrimidin-2-amine dihydrochloride] | 24 | 5.75 | 150 | 132 | 141 | 30.2 |  |  |  |  | 
2 | CN(CCCN)c1ccnc(N)n1 [Example 8, N^4-(3-aminopropyl)-N^4-methylpyrimidine-2,4-diamine dihydrochloride] | 316 | 195 |  |  |  |  |  |  |  |  | 
3 | CC(C)(CN)CNc1ccnc(N)n1 [Example 11, N^4-(3-amino-2,2-dimethylpropyl)pyrimidine-2,4-diamine] | > 339 | > 316 | 111 | 5750 |  |  |  |  |  |  | 
4 | CN(C)CCN(C)c1ccnc(N)n1 [Example 3, N^4-(2-(dimethylamino)ethyl)-N^4-methylpyrimidine-2,4-diamine dihydrochloride] | 257 | > 309 |  |  |  |  |  |  |  |  | 
5 | CN1CCN(c2ccnc(N)n2)CC1 [Example 13, 4-(4-methylpiperazin-1-yl)pyrimidin-2-amine] | 13.8 | 7.41 | 127 | 129 | 135 | 53.7 |  |  |  |  | 
6 | C[C@@H](N)Cc1c[nH]cn1 [R-α-methyl-histamine (RAMH), R-α-methyl-histamine, reference compound] |  |  | 240 |  | 224 |  |  |  |  |  | 
7 | Nc1nccc(N2C[C@H]3CN(Cc4ccccc4)C[C@H]3C2)n1 [Example 19, 4-((3aR,6aS)-5-benzylhexahydropyrrolo[3,4-c]pyrrol-2(1H)-yl)pyrimidin-2-amine] | 158 | 170 |  |  | 116 | 447 | 2110 | 50.2 |  |  | 
8 | CN(C)CCCN(C)c1ccnc(N)n1.O=C(O)C(O)C(O)C(=O)O [Example 9, N^4-(3-(dimethylamino)propyl)-N^4-methylpyrimidine-2,4-diamine(2R,3R)-2,3-dihydroxysuccinate] | 182 | > 309 |  |  |  | 1950 |  |  |  |  | 110
9 | Nc1nccc(NC2CCNCC2)n1 [Example 24, N^4-(piperidin-4-yl)pyrimidine-2,4-diamine dihydrochloride] | 324 | 105 |  |  |  |  |  |  |  |  | 
10 | Nc1nccc(N2CCC3(CC2)CNC3)n1 [Example 23, 4-(2,7-diazaspiro[3.5]nonan-7-yl)pyrimidin-2-amine trihydrochloride] | 67.6 | 12.3 | 147 | 513 | 126 | 110 |  |  |  |  | 

More lines, main results first:

Row | Ki [1] [nM] | Ki [2] [nM] | Emax (human H3R) [%] | EC50 (human H3R) [nM] | Emax (rat H3R; [5]) [%] | EC50 (rat H3R) [nM] | EC50 [3] [nM] | Emax [3] [%] | EC50 [4] [nM] | Rat Maximum (%) [4] [%] | Structure (SMILES) | Rat Maximum (%) (rat H3R; [5])
11 | 33.1 | 97.7 | 216 | 457 | 156 | 676 |  |  |  |  | Nc1nccc(NC2CNC2)n1 [Example 22, N^4-(azetidin-3-yl)pyrimidine-2,4-diamine trihydrochloride] | 
12 | > 355 | > 331 | 117 | 4790 | 138 | 7410 | 43.6 | 39 |  |  | CC(C)(C)OC(=O)N1CCC(CNc2ccnc(N)n2)CC1 [Example 15, tert-butyl 4-((2-aminopyrimidin-4-ylamino)methyl)piperidine-1-carboxylate] | 
13 | > 380 | > 355 |  |  |  |  | 316 | 67.6 |  |  | CC(C)(C)OC(=O)N1CCN(c2ccnc(N)n2)CC1 [Example 14, tert-butyl 4-(2-aminopyrimidin-4-yl)piperazine-1-carboxylate] | 
14 | 53.7 | 20 | 160 | 525 | 183 | 339 | 85.1 | 77.7 |  |  | CN(C)CCNc1ccnc(N)n1 [Example 2, N^4-(2-(dimethylamino)ethyl)pyrimidine-2,4-diamine 2,2,2-trifluoroacetate] | 
15 | > 363 | > 339 |  |  | 130 | 2340 |  |  | 4790 | 75.8 | CC(C)(C)OC(=O)N1CC[C@@H](Nc2ccnc(N)n2)C1 [Example 17, (R)-tert-butyl 3-(2-aminopyrimidin-4-ylamino)pyrrolidine-1-carboxylate] | 
16 | 61.7 | 13.2 | 162 | 537 | 168 | 309 | 13.4 | 93 |  |  | NCCCNc1ccnc(N)n1 [Example 6, N^4-(3-aminopropyl)pyrimidine-2,4-diamine dihydrochloride] | 
17 | 162 | 55 | 120 | 115 | 135 | 214 |  |  |  |  | Nc1nccc(N2CCCN(Cc3ccccc3)CCC2)n1 [Example 21, 4-(5-benzyl-1,5-diazocan-1-yl)pyrimidin-2-amine] | 
18 | 28.2 | 81.3 |  |  |  |  |  |  |  |  | CNCCCNc1ccnc(N)n1 [Example 7, N^4-(3-(methylamino)propyl)pyrimidine-2,4-diamine dihydrochloride] | 
19 | 72.4 | 24.5 | 139 | 871 | 136 | 324 |  |  |  |  | Nc1nccc(NC2CCN(Cc3ccccc3)CC2)n1 [Example 12, N^4-(1-benzylpiperidin-4-yl)pyrimidine-2,4-diamine 2,2,2-trifluoroacetate] | 
20 | > 363 | 162 | 179 | 2510 | 162 | 1620 |  |  | 74 | 78.6 | Cl.Cl.Nc1nccc(N[C@@H]2CCNC2)n1 [Example 18, (R)—N^4-(pyrrolidin-3-yl)pyrimidine-2,4-diamine dihydrochloride] | 
